Measured values as given in patent US20240270762A1, “PENICILLIN-BINDING PROTEIN INHIBITORS” (priority 2021, published 2024).
In brackets after ≈: the same amount, converted by molar mass.

Tests used:
[1] = system: B. thailandensis ATCC 700388; test: microbe, parasite or virus in culture; format: cell-based; details: Burkholderia thailandensis, ATCC700388, read-out: Minimum inhibitory concentration (MIC), B. thailandensis ATCC 700388
A. baumannii CDC-0033 = test: microbe, parasite or virus in culture; format: cell-based; details: Acinetobacter baumannii, CDC0033, read-out: MIC, A. baumannii CDC-0033
P. aeruginosa CDC-0054 = test: microbe, parasite or virus in culture; format: cell-based; details: Pseudomonas aeruginosa, CDC0054, read-out: Minimum inhibitory concentration, P. aeruginosa CDC-0054
P. aeruginosa ATCC 27853 = test: microbe, parasite or virus in culture; format: cell-based; details: Pseudomonas aeruginosa, ATCC27853, read-out: Minimum inhibitory concentration, P. aeruginosa ATCC 27853
[2] = system: B. humptydooensis ATCC BAA-2767; test: microbe, parasite or virus in culture; format: cell-based; details: Burkholderia humptydooensis, ATCCBAA2767, read-out: Minimum inhibitory concentration (MIC), B. humptydooensis ATCC BAA-2767
P. aeruginosa CDC-0095 = test: microbe, parasite or virus in culture; format: cell-based; details: Pseudomonas aeruginosa, CDC0095, read-out: Minimum inhibitory concentration, P. aeruginosa CDC-0095
A. baumannii CDC-0045 = test: microbe, parasite or virus in culture; format: cell-based; details: Acinetobacter baumannii, CDC0045, read-out: MIC, A. baumannii CDC-0045
P. aeruginosa CDC-0090 = test: microbe, parasite or virus in culture; format: cell-based; details: Pseudomonas aeruginosa, CDC0090, read-out: Minimum inhibitory concentration, P. aeruginosa CDC-0090
A. baumannii ATCC 19606 = test: microbe, parasite or virus in culture; format: cell-based; details: Acinetobacter baumannii, ATCC19606, read-out: MIC, A. baumannii ATCC 19606
P. aeruginosa ATCC 35151 = test: microbe, parasite or virus in culture; format: cell-based; details: Pseudomonas aeruginosa, ATCC35151, read-out: Minimum inhibitory concentration, P. aeruginosa ATCC 35151
[3] = biological target: T1, PBP3 from Escherichia coli (K-12) (Escherichia coli, UniProt P0AD68); test: Bocillin-FL fluorescence polarization competition binding, E. coli PBP3
T1 construct: made in house
Summary of the method: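 Purified PBP was preincubated with inhibitor (E. coli PBP3 1.5 μM, 30 min; P. aeruginosa PBP3 0.75 μM, A. baumannii PBP3 0.2 μM and PBP1a 1 μM, 15 min), then Bocillin-FL (0.1 μM; 0.05 μM for PBP1a) added and FP read up to 60 min. EC50 = 50% loss of bound probe.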

A. baumannii CDC-0083 = test: microbe, parasite or virus in culture; format: cell-based; details: Acinetobacter baumannii, CDC0083, read-out: MIC, A. baumannii CDC-0083

T1 sequence (P0AD68 1-577): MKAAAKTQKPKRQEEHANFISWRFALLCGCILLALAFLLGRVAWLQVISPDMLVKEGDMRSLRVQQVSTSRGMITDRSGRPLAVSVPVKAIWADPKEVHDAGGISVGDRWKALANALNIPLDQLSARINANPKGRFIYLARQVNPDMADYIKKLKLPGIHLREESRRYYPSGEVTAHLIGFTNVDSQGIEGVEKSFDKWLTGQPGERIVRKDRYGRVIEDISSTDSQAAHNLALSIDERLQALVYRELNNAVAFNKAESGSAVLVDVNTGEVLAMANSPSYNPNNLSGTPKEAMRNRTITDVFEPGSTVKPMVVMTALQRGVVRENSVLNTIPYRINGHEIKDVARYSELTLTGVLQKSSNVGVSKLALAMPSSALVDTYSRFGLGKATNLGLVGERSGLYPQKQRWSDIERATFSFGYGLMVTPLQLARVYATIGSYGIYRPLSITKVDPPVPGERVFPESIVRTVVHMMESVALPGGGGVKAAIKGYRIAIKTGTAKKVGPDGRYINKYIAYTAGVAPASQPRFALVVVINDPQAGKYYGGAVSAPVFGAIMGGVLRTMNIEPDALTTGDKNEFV

| Structure (SMILES) | MIC [1] | MIC (A. baumannii CDC-0033) | MIC (P. aeruginosa CDC-0054) | MIC (P. aeruginosa ATCC 27853) | MIC [2] | MIC (P. aeruginosa CDC-0095) | MIC (A. baumannii CDC-0045) | MIC (P. aeruginosa CDC-0090) | MIC (A. baumannii ATCC 19606) | MIC (P. aeruginosa ATCC 35151) | EC50 [3] | MIC (A. baumannii CDC-0083) |
| --- | --- | --- | --- | --- | --- | --- | --- | --- | --- | --- | --- | --- |
| O=C(NCCCN1CCN(C(=O)NC(C(=O)N[C@H]2Cc3ccc(F)c(C(=O)O)c3OB2O)c2cc(F)c(O)c(O)c2Cl)C(=O)C1=O)c1ccncc1F (stereo partly drawn) [Example 400, (3R)-3-(2-(2-chloro-5-fluoro-3,4-dihydroxyphenyl)-2-(4-(3-(3-fluoroisonicotinamido)propyl)-2,3-dioxopiperazine-1-carboxamido)acetamido)-7-fluoro-2-hydroxy-3,4-dihydro-2H-benzo[e][1,2]oxaborinine-8-carboxylic acid] | 2 to 4 mg/L (≈ 2.62 to 5.24 µM) | 2 to 4 mg/L (≈ 2.62 to 5.24 µM) | < 1 mg/L | 2 to 4 mg/L (≈ 2.62 to 5.24 µM) | 2 to 4 mg/L (≈ 2.62 to 5.24 µM) | 2 to 4 mg/L (≈ 2.62 to 5.24 µM) | < 1 mg/L | 2 to 4 mg/L (≈ 2.62 to 5.24 µM) | < 1 mg/L | < 1 mg/L | < 10 µM | 2 to 4 mg/L (≈ 2.62 to 5.24 µM) |
| O=C(NCCCN1CCN(C(=O)NC(C(=O)N[C@H]2Cc3ccc(F)c(C(=O)O)c3OB2O)c2cc(F)c(O)c(O)c2Cl)C(=O)C1=O)c1c(F)cncc1F (stereo partly drawn) [Example 402, (3R)-3-(2-(2-chloro-5-fluoro-3,4-dihydroxyphenyl)-2-(4-(3-(3,5-difluoroisonicotinamido)propyl)-2,3-dioxopiperazine-1-carboxamido)acetamido)-7-fluoro-2-hydroxy-3,4-dihydro-2H-benzo[e][1,2]oxaborinine-8-carboxylic acid] | 2 to 4 mg/L (≈ 2.56 to 5.12 µM) | 2 to 4 mg/L (≈ 2.56 to 5.12 µM) | < 1 mg/L | 2 to 4 mg/L (≈ 2.56 to 5.12 µM) | 2 to 4 mg/L (≈ 2.56 to 5.12 µM) | < 1 mg/L | < 1 mg/L | < 1 mg/L | < 1 mg/L | < 1 mg/L | < 10 µM | 2 to 4 mg/L (≈ 2.56 to 5.12 µM) |
| O=C(NCCCN1CCN(C(=O)NC(C(=O)N[C@H]2Cc3ccc(F)c(C(=O)O)c3OB2O)c2cc(F)c(O)c(O)c2Cl)C(=O)C1=O)c1c(F)cncc1Cl (stereo partly drawn) [Example 403, (3R)-3-(2-(2-chloro-5-fluoro-3,4-dihydroxyphenyl)-2-(4-(3-(3-chloro-5-fluoroisonicotinamido)propyl)-2,3-dioxopiperazine-1-carboxamido)acetamido)-7-fluoro-2-hydroxy-3,4-dihydro-2H-benzo[e][1,2]oxaborinine-8-carboxylic acid] | 2 to 4 mg/L (≈ 2.51 to 5.02 µM) | 2 to 4 mg/L (≈ 2.51 to 5.02 µM) | < 1 mg/L | 2 to 4 mg/L (≈ 2.51 to 5.02 µM) | 2 to 4 mg/L (≈ 2.51 to 5.02 µM) | 2 to 4 mg/L (≈ 2.51 to 5.02 µM) | < 1 mg/L | 2 to 4 mg/L (≈ 2.51 to 5.02 µM) | < 1 mg/L | < 1 mg/L | < 10 µM | 2 to 4 mg/L (≈ 2.51 to 5.02 µM) |
| O=C(NCCCN1CCN(C(=O)NC(C(=O)N[C@H]2Cc3ccc(F)c(C(=O)O)c3OB2O)c2cc(F)c(O)c(O)c2Cl)C(=O)C1=O)c1cc(F)c(F)c(O)c1F (stereo partly drawn) [Example 404, (3R)-3-(2-(2-chloro-5-fluoro-3,4-dihydroxyphenyl)-2-(2,3-dioxo-4-(3-(2,4,5-trifluoro-3-hydroxybenzamido)propyl)piperazine-1-carboxamido)acetamido)-7-fluoro-2-hydroxy-3,4-dihydro-2H-benzo[e][1,2]oxaborinine-8-carboxylic acid] | 2 to 4 mg/L (≈ 2.46 to 4.91 µM) | 2 to 4 mg/L (≈ 2.46 to 4.91 µM) | < 1 mg/L | 2 to 4 mg/L (≈ 2.46 to 4.91 µM) | > 128 mg/L | 2 to 4 mg/L (≈ 2.46 to 4.91 µM) | < 1 mg/L | 2 to 4 mg/L (≈ 2.46 to 4.91 µM) | < 1 mg/L | < 1 mg/L | < 10 µM | > 128 mg/L |
| O=C(NCCCN1CCN(C(=O)NC(C(=O)N[C@H]2Cc3ccc(F)c(C(=O)O)c3OB2O)c2cc(F)c(O)c(O)c2Cl)C(=O)C1=O)c1cccc(O)c1F (stereo partly drawn) [Example 406, (3R)-3-(2-(2-chloro-5-fluoro-3,4-dihydroxyphenyl)-2-(4.-(3-(2-fluoro-3-hydroxybenzamido)propyl)-2,3-dioxopiperazine-1-carboxamido)acetamido)-7-fluoro-2-hydroxy-3,4-dihydro-2H-benzo[e][1,2]oxaborinine-8-carboxylic acid] | 2 to 4 mg/L (≈ 2.57 to 5.14 µM) | 2 to 4 mg/L (≈ 2.57 to 5.14 µM) | < 1 mg/L | < 1 mg/L | 8 to 16 mg/L (≈ 10.3 to 20.6 µM) | < 1 mg/L | < 1 mg/L | < 1 mg/L | < 1 mg/L | < 1 mg/L | < 10 µM | < 1 mg/L |
| O=C(NCCCN1CCN(C(=O)NC(C(=O)N[C@H]2Cc3ccc(F)c(C(=O)O)c3OB2O)c2cc(F)c(O)c(O)c2Cl)C(=O)C1=O)c1cc(O)ccc1F (stereo partly drawn) [Example 407, (3R)-3-(2-(2-chloro-5-fluoro-3,4-dihydroxyphenyl)-2-(4-(3-(2-fluoro-5-hydroxybenzamido)propyl)-2,3-dioxopiperazine-1-carboxamido)acetamido)-7-fluoro-2-hydroxy-3,4-dihydro-2H-benzo[e][1,2]oxaborinine-8-carboxylic acid] | 2 to 4 mg/L (≈ 2.57 to 5.14 µM) | 2 to 4 mg/L (≈ 2.57 to 5.14 µM) | < 1 mg/L | < 1 mg/L | 8 to 16 mg/L (≈ 10.3 to 20.6 µM) | 2 to 4 mg/L (≈ 2.57 to 5.14 µM) | < 1 mg/L | < 1 mg/L | < 1 mg/L | < 1 mg/L | < 10 µM | < 1 mg/L |
| O=C(NCCCN1CCN(C(=O)NC(C(=O)N[C@H]2Cc3ccc(F)c(C(=O)O)c3OB2O)c2cc(F)c(O)c(O)c2Cl)C(=O)C1=O)c1cc(O)ccc1Cl (stereo partly drawn) [Example 408, (3R)-3-(2-(2-chloro-5-fluoro-3,4-dihydroxyphenyl)-2-(4-(3-(2-chloro-5-hydroxybenzamido)propyl)-2,3-dioxopiperazine-1-carboxamido)acetamido)-7-fluoro-2-hydroxy-3,4-dihydro-2H-benzo[e][1,2]oxaborinine-8-carboxylic acid] | 2 to 4 mg/L (≈ 2.52 to 5.04 µM) | 2 to 4 mg/L (≈ 2.52 to 5.04 µM) | < 1 mg/L | < 1 mg/L | 8 to 16 mg/L (≈ 10.1 to 20.1 µM) | < 1 mg/L | < 1 mg/L | < 1 mg/L | < 1 mg/L | < 1 mg/L | < 10 µM | < 1 mg/L |
| O=C(NCCCN1CCN(C(=O)NC(C(=O)N[C@H]2Cc3ccc(F)c(C(=O)O)c3OB2O)c2cc(F)c(O)c(O)c2Cl)C(=O)C1=O)c1ccc(F)c(O)c1 (stereo partly drawn) [Example 409, (3R)-3-(2-(2-chloro-5-fluoro-3,4-dihydroxyphenyl)-2-(4-(3-(4-fluoro-3-hydroxybenzamido)propyl)-2,3-dioxopiperazine-1-carboxamido)acetamido)-7-fluoro-2-hydroxy-3,4-dihydro-2H-benzo[e][1,2]oxaborinine-8-carboxylic acid] | 2 to 4 mg/L (≈ 2.57 to 5.14 µM) | 2 to 4 mg/L (≈ 2.57 to 5.14 µM) | < 1 mg/L | < 1 mg/L | 8 to 16 mg/L (≈ 10.3 to 20.6 µM) | 2 to 4 mg/L (≈ 2.57 to 5.14 µM) | < 1 mg/L | < 1 mg/L | < 1 mg/L | < 1 mg/L | < 10 µM | < 1 mg/L |
| O=C(NCCCN1CCN(C(=O)NC(C(=O)N[C@H]2Cc3ccc(F)c(C(=O)O)c3OB2O)c2cc(F)c(O)c(O)c2Cl)C(=O)C1=O)c1cc(O)cc(F)c1 (stereo partly drawn) [Example 410, (3R)-3-(2-(2-chloro-5-fluoro-3,4-dihydroxyphenyl)-2-(4-(3-(3-fluoro-5-hydroxybenzamido)propyl)-2,3-dioxopiperazine-1-carboxamido)acetamido)-7-fluoro-2-hydroxy-3,4-dihydro-2H-benzo[e][1,2]oxaborinine-8-carboxylic acid] | 2 to 4 mg/L (≈ 2.57 to 5.14 µM) | 2 to 4 mg/L (≈ 2.57 to 5.14 µM) | < 1 mg/L | < 1 mg/L | > 128 mg/L | 2 to 4 mg/L (≈ 2.57 to 5.14 µM) | < 1 mg/L | < 1 mg/L | < 1 mg/L | < 1 mg/L | < 10 µM | < 1 mg/L |
| O=C(NCCCN1CCN(C(=O)NC(C(=O)N[C@H]2Cc3ccc(F)c(C(=O)O)c3OB2O)c2cc(F)c(O)c(O)c2Cl)C(=O)C1=O)c1ccc(F)c(O)c1F (stereo partly drawn) [Example 411, (3R)-3-(2-(2-chloro-5-fluoro-3,4-dihydroxyphenyl)-2-(4-(3-(2,4-difluoro-3-hydroxybenzamido)propyl)-2,3-dioxopiperazine-1-carboxamido)acetamido)-7-fluoro-2-hydroxy-3,4-dihydro-2H-benzo[e][1,2]oxaborinine-8-carboxylic acid] | 2 to 4 mg/L (≈ 2.51 to 5.03 µM) | 8 to 16 mg/L (≈ 10.1 to 20.1 µM) | < 1 mg/L | < 1 mg/L | 2 to 4 mg/L (≈ 2.51 to 5.03 µM) | < 1 mg/L | 2 to 4 mg/L (≈ 2.51 to 5.03 µM) | < 1 mg/L | < 1 mg/L | < 1 mg/L | < 10 µM | 8 to 16 mg/L (≈ 10.1 to 20.1 µM) |
